Laboratory results taken from publication PMC8442276, “Inter-laboratory comparison of water solubility methods applied to difficult-to-test substances” (BMC Chemistry, 2021).
Values after ≈ are worked out from the molar mass of the structure shown. Where two headings read alike, the source gives them in different places. Marks after values point to notes of the source that are not given here.

What was measured:
[1] = Water solubility by column elution (generator column) method, OECD 105; type: physicochemical
From the text: The column elution method as applied in this ring test is described in several regulatory test guidelines. The typical generator column consists of two concentric glass columns. The inner, narrow column is packed with test substance. The solid test substance is typically dissolved in a volatile solvent which is then pre-loaded onto an inert support phase (e.g. glass beads, diatomaceous earth, chromatographic support material) by rotary evaporation to coat the support phase and then remove the solvent. Alternatively, some practitioners load the column directly with ca. 0.5 g of neat test substance which is retained with plugs of fused silica wool. The outer column provides temperature control (20 °C) as it is connected to a recirculating water bath. Reagent grade water is pumped through the inner column contacting the test substance column at a low flow rate (i.e. < 1 mL/min). The water eluate is collected, extracted and analyzed. Consecutive fractions are collected until the concentration of test substance in water plateaus indicating equilibrium water solubility has been reached. The experiment is then repeated at a flow rate approximately one-half that applied in the first trial to confirm that equilibrium has been reached. In this ring test, two of the five participating labs applied dodecahydrotriphenylene dissolved in solvent to an inert support phase. The solvent was evaporated and the support phase coated with the test compounds. The remaining three laboratories packed the columns with neat test substance. Across the five laboratories, the column flow for the first run ranged from 0.4 to 0.8 mL/min. The volume of each fraction collected for analysis ranged from 5 to 25 mL. Details of the experimental parameters used by each of the participating labs in applying the generator column method are listed in Additional file 1: Table S1.

[2] = Water solubility by slow-stir method; type: physicochemical; conditions: for solubility: reagent grade water in sealed all-glass aspirator bottles
Description: The slow-stir water solubility method uses glass vessels, at least one liter in volume, to which reagent grade water is added. The typical bottle contains a sampling port or spigot at the bottom of the vessel and is filled to a water column height approximating that of the vessel’s tapered shoulders. Slow stir systems are depicted in Additional file 1: Figure S1. This configuration minimizes headspace but maximizes the test substance—water interface. […] The top opening of the vessels is tightly sealed to minimize volatile loss of neat test substance from the system. The excess test substance provides a supply of free product to dissolve and, in the case of volatile substances, evaporate into the headspace. The system is mixed with a minimal vortex imparting just enough energy to move the small dollop of test substance and impart a slight dimple (< 0.5 cm) below the water surface. Care is taken to mix slowly so as to avoid emulsifying the test substance. Water samples are withdrawn from the bottom sampling port of the vessel, extracted and analyzed. As necessary, specific sampling techniques for dissolved volatile organics are used including: the use of gas tight syringes, minimizing sample transfer, and reduced storage duration prior to analysis. Sampling from slow-stir systems occurs over daily or weekly intervals until analysis indicates equilibrium has been reached representing maximum water solubility. Larger test (i.e. 8–20 L) vessels are generally used when the associated analytical method requires extraction of large water sample volumes and also provide a greater surface-to-volume ratio which can be advantageous, especially for surface active compounds. For substances where the solubility is extremely low (i.e. < 10 µg/L) lengthy equilibration periods (weeks-months) may be needed.
The slow-stir water solubility method is not currently cited in existing regulatory guidelines though a number of publications describe its application to difficult-to-test liquid compounds [11–14]. In this ring test, each laboratory employed all glass aspirator bottles with sampling spigots located toward the bottom of the vessels. Water volumes ranged from 0.8 to 4 L with initial vessel headspace accounting for 5 to 20% of the entire vessel volume. n-Hexylcyclohexane loadings ranged from 0.4 to 400 mg/L. The vessels were sealed with Teflon™, polypropylene, glass or high density polyethylene screw plugs or stoppers. Water was stirred at a rate imparting little to no visible vortex and stirring rates were estimated between 80 and 250 rpm. The specific experimental parameters used by each of the participating labs in applying the slow-stir method are listed in Additional file 1: Table S2.

SMILES	Mean Measured Concentration (water solubility) ([1]; Laboratory A, column packed directly with neat solid)	Mean Measured Concentration (water solubility) ([1]; Laboratory B, test substance on support) [µg/L]	Mean Measured Concentration (water solubility) ([1]; Laboratory C, test substance on support) [µg/L]	Mean Measured Concentration (water solubility) ([1]; Laboratory D, column packed directly with neat solid)	Mean Measured Concentration (water solubility) ([1]; Laboratory E, column packed directly with neat solid, statistical outlier, not included in mean) [µg/L]	Mean measured water solubility, inter-laboratory mean ([1]; column elution, 20 °C, mean of n = 4 labs (Lab E excluded as outlier)) [µg/mL]	Range of measured water solubility values across labs ([1]; column elution, 20 °C, n = 4 labs) [µg/mL]	Mean measured water solubility, inter-laboratory mean ([2]; 20 °C, mean of n = 5 labs) [µg/mL]	solubility ([2]; 20 °C, mean of n = 5 labs, read-out: Mean measured water solubility, inter-laboratory mean) [µg/mL]	solubility ([2]; 20 °C, n = 5 labs, read-out: Range of measured water solubility values across labs) [µg/mL]	solubility ([2]; 20 °C, water, thermodynamic from solid, Laboratory B, second attempt, read-out: Mean measured Concentration (water solubility)) [µg/mL]	solubility ([2]; 20 °C, water, thermodynamic from solid, Laboratory E, second attempt, read-out: Mean measured Concentration (water solubility)) [µg/mL]	solubility ([2]; water, thermodynamic from solid, Laboratory A, read-out: Mean measured Concentration (water solubility)) [µg/mL]	solubility ([2]; water, thermodynamic from solid, Laboratory B, first attempt, equilibrium not demonstrated, not included in mean, read-out: Mean measured Concentration (water solubility), first attempt) [µg/mL]	solubility ([2]; water, thermodynamic from solid, Laboratory C, read-out: Mean measured Concentration (water solubility)) [µg/mL]	solubility ([2]; water, thermodynamic from solid, Laboratory D, read-out: Mean measured Concentration (water solubility)) [µg/mL]	solubility ([2]; water, thermodynamic from solid, Laboratory E, first attempt, equilibrium not demonstrated, not included in mean, read-out: Mean measured Concentration (water solubility), first attempt) [µg/mL]
C1CCc2c(c3c(c4c2CCCC4)CCCC3)C1 [Dodecahydrotriphenylene]	2.8^p µg/L	3.2	2.1	2.3^p µg/L	0.66	0.0026	0.0021 to 0.0032	–	–	–	–	–	–	–	–	–	–
CCCCCCC1CCCCC1 [n-Hexylcyclohexane]	–	–	–	–	–	–	–	0.014	0.014 (≈ 0.0832 µM)	0.011 to 0.016 (≈ 0.0654 to 0.0951 µM)	0.012 (≈ 0.0713 µM)	0.016 (≈ 0.0951 µM)	0.015 (≈ 0.0891 µM)	0.0056 (≈ 0.0333 µM)	0.014 (≈ 0.0832 µM)	0.011 (≈ 0.0654 µM)	0.0057 (≈ 0.0339 µM)
